Measurements from US12629355B2, “Drug inhibitor against migration and invasion of cancer cells and methods of treating against metastasis of cancer cells” (HOWARD UNIVERSITY, priority 2019, dated 2026).

How the values were obtained:
Type in all cases: cell-based
MCF-7 cells = assay: Filipodia/lamellipodia development of TGF-induced cells on Matrigel, Giemsa stain (FIG. 3, FIG. 5)
Procedure: About 1×10^5 Breast cancer cells (MCF-7) treated with DMSO or SD29-14 for 48 h were resuspended in serum free MEM media and were then plated on 1:6 diluted (with serum free media) matrigel (Basement membrane mimic) in the presence of Transforming Growth Factor (TGFbeta) which is a known inducer of EMT that lead to the migration-(Lamouille and Derynck (2009)), with DMSO or with SD29-14 and the cells were allowed to grow for 20 h on Matrigel. After incubation, media and matrigels were carefully removed and adherent cells were washed three times with 1×PBS; to visualize cells, cells were incubated with Giemsa Stain (Sigma-Aldrich) (1:20 with water) for 10 minutes, washed in water until no blue color rinsed out from the well images under a Zeiss Compound microscope.
Efficacy for inhibiting migration at a lower concentration of a representative compound was also investigated. Cancer cell lines were treated under conditions as used above for FIG. 2 and FIG. 3 but with both 10 μM and 100 μM SD29-14.
The experimental methods, except for the different cell line, are essentially same as stated above as to FIG. 4.

pY397-FAK = pY397-FAK expression, immunofluorescence (FIG. 14); conditions: MCF7 cells, 96 h, 5 ng/ml TGF-beta
Excerpt: As to FIGS. 14 and 15, in order to evaluate the effect of a representative compound (SD 29-14) as a drug for inducing functional inactivation of RACK1 on the FAK phosphorylation, the drug was used in testing with breast cancer cells (MCF7, FIG. 14) and with glioblastoma cancer cells (U251, FIG. 15). In this immunofluorescence experiment, the pY397-FAK expressing cells were stained with FITC tagged secondary antibody (green) and RACK1 was stained with TRITC tagged secondary antibody (red). Here 5 ng/ml TGFbeta was used to induce cell migration. […] As discussed above, without the pY397-FAK present, the connection between the ECM and cell interiors will be disrupted which will inhibit the cell's potential to migrate by initiating the cell's adhesion to the ECM.
As to FIGS. 14 and 15, and the methods, the immunofluorescence experiments are essentially same as described with reference to FIG. 9 with a slight modification in the duration of the drug treatment. The cancer cells (MCF7 or U251) were incubated with a drug (SD 29-14) or with DMSO (left panel) for 96 h in the presence of 5 ng/ml TGF-beta. After indicated incubation period, the cells were fixed and stained with antibody as described for FIG. 9 methods.

[1] = Toxicity judged from DAPI treated cell nucleus in immunofluorescence experiments; conditions: 100 μM
Procedure: However, 100 μM might be a high concentration or dosing and may be higher than physiologically potent concentration.

U251 cells = assay: Wound migration assay (FIG. 9); conditions: TGF, 0 h and 14 h after wounding
Excerpt: During tumorigenesis, the epithelial-mesenchymal transition (EMT) plays a crucial role in migration and invasion of various cancers. EMT plays an essential role in tumor invasiveness and metastasis in cancer progression. Invasiveness (metastasis) of cancers is associated with a critical physiological process in which epithelial cells transition to mesenchymal transition or differentiation (EMT). Epithelial cells are not regarded as motile. However, in EMT, epithelial cells lose their epithelial characteristics, including their polarity (apical-basal polarity) and specialized cell-cell junctions, to acquire motility (migratory ability) behavior to become invasive mesenchymal cells, (e.g., Qu et al., Int. J. Clin. Exp. Med., 10 (6): 9019-9028 (2017); Xu et al., Cell Res. 19:156-172 (2009)). The motile mesenchymal cells can move (migrate) into surrounding tissue, even remote tissue. […] A wound was created by sliding a tip of a plastic pipette on the surface of almost 100 percent confluent cells and the size of the wound was measured at 0 h and after 14 h of wound creation. […]
In FIG. 10 and FIG. 11, U251 cells were plated in six-well plates and were allowed to reach about 90%-100% density. […] The size of wound was measured under a microscope at 0 and 14 h after wounding.

N-cadherin = assay: Protein expression of EMT marker N-cadherin, western blot (FIG. 8); conditions: U251 cells, serum starved 24 h, with or without TGFb, 6 days
Excerpt: The inhibition of EMT marker by a representative compound (SD 29-14) in comparison to other compounds (SD 29, and SD 29-12). A large family of cadherin molecules are expressed in a cancer cell-type specific manner and among them, N-cadherin is reported to be expressed in mesenchymal cells (e.g., Li and Feng, 2011; Alizadeh et al., 2014). […] Up-regulation of N-cadherin reduces cancer cell adhesion ability to epithelial cells, increases adhesion to stromal cells, and leads to subsequent invasion of tumor cells into stroma (Guan 2015). N-cadherin promotes cell migration and metastasis regardless of the expression and function of E-cadherin (Hazan et al., 2000). […] The N-cadherin expression correlates with RACK1 expression (lower panel). The coomassie stained gel is used as the loading control.
As to FIG. 8, U251 cells starved (no serum) for 24 h and then treated with the indicated compounds with or without the TGFb and again replenished with the compounds and TGFb after 3 days. After allowing to grow for 6 days, the cells were washed three times in PBS. […] After overnight incubation, the membrane was washed 3× in PBST and then incubated with a horseradish peroxidase-coupled secondary antibody for an hour at room temperature and the bands were detected with enhanced chemiluminescence (Pierce, Rockford, IL, USA), according to standard methods.

## Nn1c(S)nnc1-c1cc(Cl)cc(Cl)c1 [SD 29-14]
MCF-7 cells; 10 μM, 72 h grown (FIG. 5)
  efficacy to inhibit filipodia and lamellipodia development: maintained
MCF-7 cells; 100 uM, TGF-beta on Matrigel, 48 h treated then 20 h on Matrigel
  filipodia and lamellipodia development: the development of both filipodia and lamellipodia was inhibited
pY397-FAK
  expression of pY397-FAK at the cell protrusions: almost completely inhibited
[1]
  toxicity to cells (uniform DAPI treated cell nucleus, drug treated vs non-treated): not exposed to a toxic amount
U251 cells
  cell migration into wound: the cells failed to migrate to cover the clear area
N-cadherin
  N-cadherin expression: down-regulated N-cadherin expression
